Data as given in patent publication US11458203B2, “Pharmaceutical compositions comprising caffeic acid chelates” (Arizona Board of Regents, on behald of Arizona State …, priority 2017, dated 2022).
Where two headings read alike, the source gives them in different places.

Columns and labels:
HSV1 = HSV1 plaque formation assay in Vero cells; format: cell-based; settings: for IC50: read-out: HSV1 IC50; for antiviral activity of the substance by itself (in words): component alone, not combined
Rhinovirus 14 = format: cell-based
[1] = system: vesicular stomatitis virus (VSV); format: cell-based; settings: FIG. 6
[2] = system: vaccinia virus (Copenhagen strain); format: cell-based; settings: FIG. 6
Zika virus = format: cell-based; settings: at the concentrations tested
HSV2 = HSV2 plaque formation assay in Vero cells; format: cell-based; settings: FIG. 6
Experimental: The antiviral assays were conducted as follows. For HSV1 and HSV2, Vero cells were grown in Dulbecco's minimal essential media containing 10% heat inactivated fetal bovine serum and antibiotic/antimycotic (ThermoFisher) in a 37° C., 5% CO2 incubator. Cells were seeded in standard 6-well tissue culture dishes. HSV1 virus was diluted to 100 plaque forming units/100 μL complete media. The virus samples were treated for 15 minutes with the indicated concentrations of the test compound/material. These treated viral samples were used to infect the confluent Vero cell monolayers. Cells were infected for 1 hour at 37° C. with occasional rocking. After 1 hour, 2 mLs of complete media was added to each well. The test compound was added to the media at the indicated concentration. The dishes were placed in the incubator for 3 days. After 3 days, the media was removed and the cells stained with 0.5% crystal violet. The number of plaques present were counted by hand and graphed as a percent relative to untreated samples.

reovirus type 3 = format: cell-based
VSV-Ebola pseudotype = format: cell-based, VSV-Ebola pseudotype (Zaire Ebola virus glycoprotein)
Vero cells = settings: African green monkey, 24 h, 27000 μM
[3] = test compound paired with Fe^3+, FIG. 7 and FIG. 8
[4] = Human alphaherpesvirus 1, Vero, test compound paired with Fe^3+, single dose-response trial, minimum three concentrations, FIG. 7 and FIG. 8

Molecule: O=C(O)C=Cc1ccc(O)cc1O [2,4-dihydroxycinnamic acid]
- anti-HSV1 activity (in words) (HSV1; [3]): inactivity

Molecule: O=C(O)c1ccc(O)c(O)c1 [3,4-dihydroxybenzoic acid]
- anti-HSV1 activity (in words) (HSV1; [3]): low activity

Molecule: O=C(O)Cc1ccc(O)c(O)c1 [3,4-dihydroxylphenylacetic acid]
- IC50 (HSV1; [4]): 101 µM

Molecule: O=C(O)C(O)Cc1ccc(O)c(O)c1 (stereo not drawn) [Danshensu, 3-(3,4-dihydroxyphenyl)-2-hydroxypropanoic acid]
- IC50 (HSV1; Human alphaherpesvirus 1, Vero): 47.1 µM

Molecule: CC(Cc1ccc(O)c(O)c1)C(C)Cc1ccc(O)c(O)c1 (stereo not drawn) [Nordihydroguaiaretic acid]
- anti-HSV1 activity at highest concentration tested (HSV1; combined with iron(III), at 330 μM, FIG. 8): no activity
- anti-HSV1 activity (in words) (HSV1; [3]): low activity
- anti-HSV1 activity (in words) (HSV1; test compound paired with Fe^3+, FIG. 7 and FIG. 8, listed as nordihydroguaiaretic acid): no anti-HSV1 activity

Molecule: O=S(=O)(O)c1cc(O)c(O)c(S(=O)(=O)O)c1 [Tiron]
- anti-HSV1 activity (in words) (HSV1; [3]): low activity

Molecule: Nc1nc2c(ncn2COCCO)c(=O)[nH]1 [acyclovir]
- activity relative to the caffeic acid and iron chelates (HSV1; positive control, FIG. 1 trial): about 20 fold

Molecule: O=C(O)C=Cc1ccc(O)c(O)c1 [caffeic acid, 3,4-dihydroxycinnamic acid]
- effect on Rhinovirus (in words) (Rhinovirus 14): unaffected
- EC50 (HSV1; Human alphaherpesvirus 1, Vero, FIG. 1, inorganic ions added at half molar ratio to caffeic acid (2:1 organic:inorganic), caffeic acid alone = average of two separate tests, read-out: HSV1 EC50 (inhibition of plaque formation)): 18600 µM
- IC50 (HSV1; [4]): 66.7 µM
- antiviral activity of the substance by itself (in words) (HSV1): weak antiviral properties
- antiviral activity of the substance by itself (in words) (HSV1; listed as Caffeic acid): minimal effect
- effect on wild type VSV (in words) [1]: minimal effect
- effect on vaccinia virus (in words) [2]: minimal effect
- effect on Zika virus (in words) (Zika virus): unaffected
- effect on HSV2 (in words) (HSV2): minimal effect
- effect on Reovirus (in words) (reovirus type 3): unaffected
- effect on VSV-Ebola pseudotype (in words) (VSV-Ebola pseudotype): minimal effect
- cell viability (Vero cells): ≥ 90%

Molecule: Oc1ccccc1O [catechol]
- anti-HSV1 activity (in words) (HSV1; [3]): low activity

Molecule: NCCc1ccc(O)c(O)c1 [dopamine]
- anti-HSV1 activity (in words) (HSV1; [3]): low activity

Molecule: [Cl][Fe]([Cl])[Cl] [iron(III), iron(III) chloride]
- antiviral activity of the substance by itself (in words) (HSV1): no antiviral properties
- antiviral activity of the substance by itself (in words) (HSV1; listed as Iron(III)): no detectable antiviral activity

Molecule: O=C(/C=C/c1ccc(O)c(O)c1)O[C@H](Cc1ccc(O)c(O)c1)C(=O)O [rosmarinic acid]
- IC50 (HSV1; [4]): 101 µM

Molecule: caffeic acid+sulfate
- anti-HSV1 activity compared with caffeic acid alone (HSV1; FIG. 1, ion at half molar ratio to caffeic acid): no increased activity over caffeic acid alone

Molecule: chicoric acid
- anti-HSV1 activity relative to caffeic acid, molar basis (HSV1; paired with Fe^3+, FIG. 8): a little over triple that of caffeic acid
- IC50 (HSV1; test compound paired with Fe^3+, single dose-response trial, minimum three concentrations, FIG. 7 and FIG. 8): 17.4 µM

Molecule: copper(II)
- inhibition of plaque formation (HSV1; inorganic ions in the absence of caffeic acid, 83 μM (highest dose tested), FIG. 2 and FIG. 3): 38%
